In brackets after ≈: the same amount, converted by molar mass. Where two headings read alike, the source gives them in different places.
Experiments:
[1] = tested on: Streptococcus pneumoniae A-9585; experiment: MIC, standard tube dilution procedure; assay type: cell-based; conditions: A9585
[2] = tested on: Streptococcus pyogenes A-9604; experiment: MIC, standard tube dilution procedure; assay type: cell-based; conditions: A9604
[3] = tested on: Staphylococcus aureus A-9497; experiment: MIC, standard tube dilution procedure; assay type: cell-based; conditions: A9497
[4] = tested on: Staphylococcus aureus A-9537; experiment: MIC, standard tube dilution procedure; assay type: cell-based; conditions: A9537
Escherichia coli A-15119 = experiment: MIC, standard tube dilution procedure; assay type: cell-based; conditions: A15119
Escherichia coli A-21780 = experiment: MIC, standard tube dilution procedure; assay type: cell-based; conditions: A21780
[5] = tested on: Klebsiella pneumoniae A-9977; experiment: MIC, standard tube dilution procedure; assay type: cell-based; conditions: A9977
Proteus mirabilis A-9900 = experiment: MIC, standard tube dilution procedure; assay type: cell-based; conditions: A9900
Candida albicans A-9540 = experiment: MIC, standard tube dilution procedure; assay type: cell-based; conditions: A9540
[6] = tested on: Candida tropicalis A-15051; experiment: MIC, standard tube dilution procedure; assay type: cell-based; conditions: A15051
Candida krusei A-15052 = experiment: MIC, standard tube dilution procedure; assay type: cell-based; conditions: Pichia kudriavzevii, A15052
[7] = tested on: Cryptococcus neoformans A-1503; experiment: MIC, standard tube dilution procedure; assay type: cell-based; conditions: A1503
[8] = tested on: Trichophyton mentagrophytes A-9870; experiment: MIC, standard tube dilution procedure; assay type: cell-based; conditions: A9870
[9] = acute intraperitoneal LD50 in mice; conditions: mouse, in vivo, ip
P-388 leukemia = experiment: transplanted mouse leukemia P-388 (ascitic); conditions: for Avg. wt. Difference (T-C, g.) / T/C Percent MST: single i.p. injection Day 1
Protocol: (§1) The compounds of the present invention were also tested against various transplantable rodent tumer systems.
(§2) Single injection Day 1 intraperitoneally.?
(§3) T/C percent MST=median survival time in days: Treated/Control × 100

L-1210 leukemia [10] = experiment: transplanted mouse leukemia L-1210 (ascitic); conditions: for Avg. wt. Difference (T-C, g.) / T/C Percent MST: single i.p. injection Day 1
Protocol: as §1, §2, §3

L-1210 leukemia [11] = experiment: L-1210 mouse leukemia, purified compounds, BDF1 female mice
Protocol: Inoculum: 10^6 ascitic cells, i.p. into BDF1 female mice
Treatment: i.p. in 0.5 ml. volume
Evaluation: MST = median survival time in days; %T/C = MST treated/MST
(prolongation of host survival)

Solubility = assay type: physicochemical
[12] = activity of column fractions of bohemic acid complex; conditions: Example 8 large scale fractionation
Protocol: Sephadex LH-20 soaked for 68 hours in chloroform was slurry packed into a Pharmacia SR 25/100 column (25 mm. I.D. × 100 cm. height) equipped with adjustable teflon tips at each end. The column was packed so as to be completely filled from tip to tip, an effective bed height of 90-95 cm. Bohemic acid complex (500 mg.) was dissolved in 10 ml. chloroform and applied to the column which was then allowed to develop with chloroform by downflow at a take-off rate of 1 ml./min. Eluted liquid was collected in 6 ml. cuts in a fraction collector. Samplings of even numbered tubes were diluted 80-fold with chloroform and read in a Bausch and Lomb Spectronic 20 colorimeter at 490 mμ. Four distinct bands of anthracycline pigments were noted as follows:
The solids obtained were chromatographed on Brinkmann 60F254 silica gel thin layer plates using an 80:20 toluene:methanol solvent system. […] The second band gave a characteristic pinkish red zone at about Rf =0.75. […] The third fraction to elute gave a single zone with Rf ~0.3. […] The final band to elute gave a zone at Rf ~0.3 and comprised mainly marcellomycin. […]
A 6 inch (diameter) × 77 inch (height) glass column was equipped at the base with a no clog filter on top of which was placed a layer of glass wool followed by a circular polyethylene frit. […] Aliquots of every fifth fraction were diluted and analyzed as described in Example 7. […]

[13] = 3.2 mg/kg/day i.p., Day 1, 1 injection
[14] = 3.2 mg/kg/day i.p., Day 1→5, 5 injections
[15] = 6.4 mg/kg/day i.p., Day 1, 1 injection
[16] = 6.4 mg/kg/day i.p., Day 1→5, 4 injections
[17] = 12.8 mg/kg/day i.p., Day 1, 1 injection
[18] = .2 mg/kg/day i.p., Day 1→5, 5 injections
[19] = .4 mg/kg/day i.p., Day 1, 1 injection
[20] = .4 mg/kg/day i.p., Day 1→5, 5 injections
[21] = .8 mg/kg/day i.p., Day 1, 1 injection
[22] = .8 mg/kg/day i.p., Day 1→5, 5 injections
[23] = 6.4 mg/kg/day i.p., Day 1→5, 5 injections

## CC[C@@]1(O)C[C@H](O[C@H]2C[C@H](N(C)C)[C@H](O[C@H]3C[C@H](O)[C@H](O[C@H]4C[C@H](O)[C@H](O)[C@H](C)O4)[C@H](C)O3)[C@H](C)O2)c2c(cc3c(c2O)C(=O)c2c(O)ccc(O)c2C3=O)[C@H]1C(=O)OC [marcellomycin]
[1]; Streptococcus pneumoniae
  MIC: 0.03 µg/mL (≈ 0.0355 µM)
[2]; Streptococcus pyogenes
  MIC: 0.03 µg/mL (≈ 0.0355 µM)
[3]; Staphylococcus aureus
  MIC: 1 µg/mL (≈ 1.18 µM)
[4]; Staphylococcus aureus
  MIC: 1 µg/mL (≈ 1.18 µM)
Escherichia coli A-15119; Escherichia coli
  MIC: 125 µg/mL (≈ 148 µM)
Escherichia coli A-21780; Escherichia coli
  MIC: 32 µg/mL (≈ 37.8 µM)
[5]; Klebsiella pneumoniae
  MIC: 125 µg/mL (≈ 148 µM)
Proteus mirabilis A-9900; Proteus mirabilis
  MIC: > 125 µg/mL
Candida albicans A-9540; Candida albicans
  MIC: 125 µg/mL (≈ 148 µM)
[6]; Candida tropicalis
  MIC: 125 µg/mL (≈ 148 µM)
Candida krusei A-15052
  MIC: 125 µg/mL (≈ 148 µM)
[7]; Cryptococcus neoformans
  MIC: 125 µg/mL (≈ 148 µM)
[8]; Trichophyton mentagrophytes
  MIC: > 125 µg/mL
[9]
  LD50: 6.35 to 10.6 mg/kg
P-388 leukemia; Example 7 column fraction
  activity on P-388 mouse leukemia: high activity
L-1210 leukemia [10]; Example 7 column fraction
  activity on L-1210 mouse leukemia: high activity
L-1210 leukemia [11]; [13]
  Average Weight Change: -0.7 g
  MST %T/C: 157%
  MST Days: 11.0 days
  Survivors Day 5: 6/6
L-1210 leukemia [11]; [14]
  Average Weight Change: -1.2 g
  MST %T/C: 86%
  MST Days: 6.0 days
  Survivors Day 5: 3/6
L-1210 leukemia [11]; [15]
  Average Weight Change: -0.7 g
  MST %T/C: 157%
  MST Days: 11.0 days
  Survivors Day 5: 6/6
L-1210 leukemia [11]; [16]
  Average Weight Change in g.: TOXIC
  MST %T/C: TOXIC
  MST Days: TOXIC
  Survivors Day 5: 0/6
L-1210 leukemia [11]; [17]
  Average Weight Change: -0.7 g
  MST %T/C: 143%
  MST Days: 10.0 days
  Survivors Day 5: 3/6
L-1210 leukemia [11]; [18]
  Average Weight Change: -1.1 g
  MST %T/C: 129%
  MST Days: 9.0 days
  Survivors Day 5: 6/6
L-1210 leukemia [11]; [19]
  Average Weight Change: -0.8 g
  MST %T/C: 129%
  MST Days: 9.0 days
  Survivors Day 5: 6/6
L-1210 leukemia [11]; [20]
  Average Weight Change: 0 g
  MST %T/C: 129%
  MST Days: 9.0 days
  Survivors Day 5: 6/6
L-1210 leukemia [11]; [21]
  Average Weight Change: 0 g
  MST %T/C: 150%
  MST Days: 10.5 days
  Survivors Day 5: 6/6
L-1210 leukemia [11]; [22]
  Average Weight Change: -0.2 g
  MST %T/C: 143%
  MST Days: 10.0 days
  Survivors Day 5: 6/6
L-1210 leukemia [11]; purified, L-1210 mouse leukemia
  potency relative to musettamycin in inhibitory effects on L-1210: about four times

## CC[C@@]1(O)C[C@H](O[C@H]2C[C@H](N(C)C)[C@H](O[C@H]3C[C@H](O)[C@H](O)[C@H](C)O3)[C@H](C)O2)c2c(cc3c(c2O)C(=O)c2c(O)ccc(O)c2C3=O)[C@H]1C(=O)OC [musettamycin]
[1]; in vitro, Streptococcus pneumoniae A-9585, read-out: MIC
  MIC: 0.06 µg/mL (≈ 0.0838 µM)
[2]; in vitro, Streptococcus pyogenes A-9604, read-out: MIC
  MIC: 0.06 µg/mL (≈ 0.0838 µM)
[3]; in vitro, Staphylococcus aureus A-9497, read-out: MIC
  MIC: 0.5 µg/mL (≈ 0.699 µM)
[4]; in vitro, Staphylococcus aureus A-9537, read-out: MIC
  MIC: 1 µg/mL (≈ 1.4 µM)
Escherichia coli A-15119; in vitro, Escherichia coli A-15119, read-out: MIC
  MIC: > 125 µg/mL
Escherichia coli A-21780; in vitro, Escherichia coli A-21780, read-out: MIC
  MIC: 32 µg/mL (≈ 44.7 µM)
[5]; in vitro, Klebsiella pneumoniae A-9977, read-out: MIC
  MIC: > 125 µg/mL
Proteus mirabilis A-9900; in vitro, Proteus mirabilis A-9900, read-out: MIC
  MIC: > 125 µg/mL
Candida albicans A-9540; in vitro, Candida albicans A-9540, read-out: MIC
  MIC: 125 µg/mL (≈ 175 µM)
[6]; in vitro, Candida tropicalis A-15051, read-out: MIC
  MIC: 63 µg/mL (≈ 88 µM)
Candida krusei A-15052; in vitro, Candida krusei A-15052, read-out: MIC
  MIC: 125 µg/mL (≈ 175 µM)
[7]; in vitro, Cryptococcus neoformans A-1503, read-out: MIC
  MIC: 63 µg/mL (≈ 88 µM)
[8]; in vitro, Trichophyton mentagrophytes A-9870, read-out: MIC
  MIC: > 125 µg/mL
[9]
  LD50: 9.8 to 21.1 mg/kg
Solubility; organic solvents
  Solubility: Soluble in most organic solvents
Solubility; water, aliphatic hydrocarbons and ether
  Solubility: insoluble in water, aliphatic hydrocarbons and ether
[12]
  activity of fraction: active
P-388 leukemia; 3.2 mg/kg
  Avg. wt. Difference (T-C, g.): -3.0 g
  T/C Percent MST: 145%
P-388 leukemia; 6.4 mg/kg
  Avg. wt. Difference (T-C, g.): -3.4 g
  T/C Percent MST: 160%
P-388 leukemia; .2 mg/kg
  Avg. wt. Difference (T-C, g.): -2.1 g
  T/C Percent MST: 120%
P-388 leukemia; .4 mg/kg
  Avg. wt. Difference (T-C, g.): -1.6 g
  T/C Percent MST: 135%
P-388 leukemia; .8 mg/kg
  Avg. wt. Difference (T-C, g.): -2.0 g
  T/C Percent MST: 140%
L-1210 leukemia [10]; 3.2 mg/kg
  Avg. wt. Difference (T-C, g.): -2.5 g
  T/C Percent MST: 120%
L-1210 leukemia [10]; 6.4 mg/kg
  Avg. wt. Difference (T-C, g.): -2.5 g
  T/C Percent MST: 140%
L-1210 leukemia [10]; .8 mg/kg
  Avg. wt. Difference (T-C, g.): -1.1 g
  T/C Percent MST: 107%
L-1210 leukemia [11]; [13]
  Average Weight Change in g.: +0.3 g.
  MST %T/C: 129%
  MST Days: 9.0 days
L-1210 leukemia [11]; [14]
  Average Weight Change: -1.3 g
  MST %T/C: 157%
  MST Days: 11.0 days
L-1210 leukemia [11]; [15]
  Average Weight Change in g.: +0.5 g.
  MST %T/C: 143%
  MST Days: 10.0 days
L-1210 leukemia [11]; [23]
  Average Weight Change: -1.5 g
  MST %T/C: 86%
  MST Days: 6.0 days
L-1210 leukemia [11]; [17]
  Average Weight Change: -0.6 g
  MST %T/C: 150%
  MST Days: 10.5 days
L-1210 leukemia [11]; [18]
  Average Weight Change in g.: +1.8 g.
  MST %T/C: 129%
  MST Days: 9.0 days
L-1210 leukemia [11]; [19]
  Average Weight Change in g.: +1.3 g.
  MST %T/C: 114%
  MST Days: 8.0 days
L-1210 leukemia [11]; [20]
  Average Weight Change in g.: +0.6 g.
  MST %T/C: 129%
  MST Days: 9.0 days
L-1210 leukemia [11]; [21]
  Average Weight Change in g.: +1.2 g.
  MST %T/C: 121%
  MST Days: 8.5 days
L-1210 leukemia [11]; [22]
  Average Weight Change in g.: +0.4 g.
  MST %T/C: 136%
  MST Days: 9.5 days

Reference: US4039736A (Bristol-Myers Company, priority 1976, dated 1977)
